Source: patent US8580785B2, “Insecticides” (Syngenta Crop Protection LLC, priority 2005, dated 2013)

Tests used:
[1] = tested on: Spodoptera littoralis; assay: Activity against Spodoptera littoralis; format: in vivo; settings: 72 h, 400 ppm spray on young soya plants, 1st instar caterpillars, 3 days, read-out: percentage reduction in the population and in the feeding damage (% activity)
Protocol: (§1) Young soya plants are sprayed with an aqueous emulsion spray mixture comprising 400 ppm of active ingredient and, after the spray coating has dried on, populated with 10 caterpillars (1st instar) of Spodoptera littoralis and introduced into a plastic container. 3 days later, the percentage reduction in the population and in the feeding damage (% activity) are determined by comparing the number of dead caterpillars and the feeding damage between the treated and untreated plants.

[2] = tested on: Plutella xylostella; assay: Activity against Plutella xylostella; format: in vivo; settings: 72 h, 400 ppm spray on young cabbage plants, 3rd instar caterpillars, 3 days, read-out: percentage reduction in the population and in the feeding damage (% activity)
Protocol: as §1, with “cabbage” for “soya”, “(3rd” for “(1st”, “Plutella xylostella” for “Spodoptera littoralis”

[3] = tested on: Frankliniella occidentalis; assay: Activity against Frankliniella occidentalis; format: in vivo; settings: bean leaf discs (6 days) or bean plants (14 days); mixed population
Protocol: Bean leaf discs on agar in petri dishes or bean plants in a spray chamber are treated with diluted test solutions. After drying leaf discs are cut and placed in plastic cups on the surface of an agar layer and infested with mixed population. 6 days (leaf discs) or 14 days (plants) after the infestation, samples are checked for reduction of treated population and compared to the non treated population. In this test, compounds listed in Table P above show good activity. In particular compound T7.1.7 has an activity of over 80%.

[4] = tested on: Heliothis virescens; assay: Activity against Heliothis virescens (foliar application); format: in vivo; settings: 144 h, 400 ppm spray on young soya plants, 1st instar caterpillars, 6 days, read-out: percentage reduction in the population and in the feeding damage (% activity)
Protocol: as §1, with “Heliothis virescens” for “Spodoptera littoralis”, “6” for “3”

[5] = tested on: Diabrotica balteata; assay: Activity against Diabrotica balteata (sprayed maize seedlings); format: in vivo; settings: 144 h, 400 ppm spray on maize seedlings, 2nd instar larvae, 6 days, read-out: percentage reduction in the population (% activity)
Protocol: Maize seedlings are sprayed with an aqueous emulsion spray mixture comprising 400 ppm of active ingredient and, after the spray coating has dried on, populated with 10 larvae (2nd instar) of Diabrotica balteata and introduced into a plastic container. 6 days later, the percentage reduction in the population (% activity) is determined by comparing the number of dead larvae between the treated and untreated plants.

[6] = tested on: Myzus persicae; assay: Systemic insecticide test for Myzus persicae; format: in vivo; settings: roots of infected pea seedlings in 400 ppm spray mixture, 20°, 3 and 6 days, read-out: percentage reduction in the population (% activity)
Protocol: Pea seedlings are infected with Myzus persicae, and their roots are subsequently placed into a spray mixture comprising 400 ppm of active ingredient. The seedlings are then incubated at 20°. 3 and 6 days later, the percentage reduction in the population (% activity) is determined by comparing the number of dead aphids between the treated and untreated plants.

Structure (SMILES)	inhibition at 400 ppm [1]	melting point	inhibition at 400 ppm [2]	reduction of treated population (activity) [3]	inhibition at 400 ppm [4]	inhibition at 400 ppm [5]	inhibition at 400 ppm [6]
Cn1c(C2CC2)nc2cc(C(=O)NCC3CC3)c(NC(=O)c3cc(C(F)(F)F)nn3-c3ncccc3Cl)c(Cl)c21 [Compound T37.1.14]	> 80%	233 to 235 °C	> 80%				
Cc1ccc2c(C)c(NC(=O)c3cc(C(F)(F)F)nn3-c3ncccc3Cl)c(C(=O)NC(C)C)cc2n1 [Compound T7.1.7]	> 80%		> 80%	over 80%	> 80%		
CNC(=O)c1cc2[nH]cnc2c(Cl)c1NC(=O)c1cc(C(F)(F)F)nn1-c1ncccc1Cl		190 to 192 °C					
Cn1cnc2cc(C(=O)NCC3CC3)c(NC(=O)c3cc(C(F)(F)F)nn3-c3ncccc3Cl)c(Cl)c21 [Compound T22.1.14]	> 80%	148 to 151 °C	> 80%				
CC(C)NC(=O)c1cc2ncn(C)c2c(Cl)c1NC(=O)c1cc(C(F)(F)F)nn1-c1ncccc1Cl [Compound T22.1.8, 7-chloro-6-{[2-(3-chloro-pyridin-2-yl)-5-trifluoromethyl-2H-pyrazole-3-carbonyl]-amino}-1-methyl-1H-benzoimidazole-5-carboxylic acid isopropylamide]	> 80%	150 to 155 °C	> 80%			> 80%	
O=C(NCC1CC1)c1cc2nccnc2c(Cl)c1NC(=O)c1cc(C(F)(F)F)nn1-c1ncccc1Cl [Compound T1.1.14, 8-chloro-7-{[2-(3-chloro-pyridin-2-yl)-5-trifluoromethyl-2H-pyrazole-3-carbonyl]-amino}-quinoxaline-6-carboxylic acid cyclopropylmethyl-amide]	> 80%		> 80%				
Cc1nc2cc(C(=O)NC(C)C)c(NC(=O)c3cc(C(F)(F)F)nn3-c3ncccc3Cl)c(Cl)c2n1C [Compound T35.1.8, 7-chloro-6-{[2-(3-chloro-pyridin-2-yl)-5-trifluoromethyl-2H-pyrazole-3-carbonyl]-amino}-1,2-dimethyl-1H-benzoimidazole-5-carboxylic acid isopropylamide]	> 80%	248 to 250 °C	> 80%				> 80%
COC1=NC2C=C(C(=O)NCC3CC3)C(NC(=O)c3cc(C(F)(F)F)nn3-c3ncccc3Cl)=C(Cl)C2S1 (centres unmarked) [Compound T115.1.14, 7-chloro-6-{[2-(3-chloro-pyridin-2-yl)-5-trifluoromethyl-2H-pyrazole-3-carbonyl]-amino}-2-methoxy-3a,7a-dihydro-benzothiazole-5-carboxylic acid cyclopropylmethyl-amide]	> 80%		> 80%				
CNC(=O)c1cc2nc(C(F)(F)F)ccc2c(OC)c1NC(=O)c1cc(C(F)(F)F)nn1-c1ncccc1Cl [Compound T8.1.121, 6-{[2-(3-Chloro-pyridin-2-yl)-5-trifluoromethyl-2H-pyrazole-3-carbonyl]-amino}-5-methoxy-2-trifluoromethyl-quinoline-7-carboxylic acid methyl amide]	> 80%		> 80%				
CC(C)NC(=O)c1cc2nc(C3CC3)n(C)c2c(Cl)c1NC(=O)c1cc(C(F)(F)F)nn1-c1ncccc1Cl [Compound T37.1.8, 7-chloro-6-{[2-(3-chloro-pyridin-2-yl)-5-trifluoromethyl-2H-pyrazole-3carbonyl]-amino}-2-cyclopropyl-1-methyl-1H-benzoimidazole-5-carboxylic acid isopropylamide]	> 80%	242 to 244 °C	> 80%				
O=C(NCC1CC1)c1cc2nsnc2c(Cl)c1NC(=O)c1cc(C(F)(F)F)nn1-c1ncccc1Cl [Compound T20.1.14, 7-chloro-6-{[2-(3-chloro-pyridin-2-yl)-5-trifluoromethyl-2H-pyrazole-3-carbonyl]-amino}-benzo[1,2,5]thiadiazole-5-carboxylic acid cyclopropylmethyl-amide]	> 80%		> 80%				
O=C(NCC1CC1)c1cc2[nH]cnc2c(Cl)c1NC(=O)c1cc(C(F)(F)F)nn1-c1ncccc1Cl [Compound T21.1.14]		198 to 201 °C	> 80%				
CSC1=NC2C=C(C(=O)NCC3CC3)C(NC(=O)c3cc(C(F)(F)F)nn3-c3ncccc3Cl)=C(Cl)C2S1 (centres unmarked) [Compound T94.1.14, 7-chloro-6-{[2-(3-chloro-pyridin-2-yl)-5-trifluoromethyl-2H-pyrazole-3-carbonyl]-amino}-2-methylsulfanyl-3a,7a-dihydro-benzothiazole-5-carboxylic acid cyclopropylmethyl-amide]	> 80%	221 to 223 °C	> 80%				
CNC(=O)c1cc2nsnc2c(Cl)c1NC(=O)c1cc(C(F)(F)F)nn1-c1ncccc1Cl [Compound T20.1.2, 7-chloro-6-{[2-(3-chloro-pyridin-2-yl)-5-trifluoromethyl-2H-pyrazole-3-carbonyl]-amino}-benzo[1,2,5]thiadiazole-5-carboxylic acid methylamide]	> 80%		> 80%				
CNC(=O)c1cc2nc(C(F)(F)F)ccc2cc1NC(=O)c1cc(Br)nn1-c1ncccc1Cl [Compound T8.1.153, 6-{[5-Bromo-2-(3-chloro-pyridin-2-yl)-2H-pyrazole-3-carbonyl]-amino}-2-trifluoromethyl-quinoline-7-carboxylic acid methyl amide]	> 80%	120 to 127 °C	> 80%				
CNC(=O)c1cc2nc(C(F)(F)F)ccc2c(Cl)c1NC(=O)c1cc(C(F)(F)F)nn1-c1ncccc1Cl [Compound T8.1.2, 5-Chloro-6-{[2-(3-chloro-pyridin-2-yl)-5-trifluoromethyl-2H-pyrazole-3-carbonyl]-amino}-2-trifluoromethyl-quinoline-7-carboxylic acid methyl amide]	> 80%	233 to 237 °C	> 80%			> 80%	
Cc1nc2cc(C(=O)NCC3CC3)c(NC(=O)c3cc(C(F)(F)F)nn3-c3ncccc3Cl)c(Cl)c2n1C [Compound T35.1.14]	> 80%	233 to 235 °C					
CNC(=O)c1cc2nc(C(F)(F)F)ccc2c(C)c1NC(=O)c1cc(C(F)(F)F)nn1-c1ncccc1Cl [Compound T8.1.1, 6-{[2-(3-Chloro-pyridin-2-yl)-5-trifluoromethyl-2H-pyrazole-3-carbonyl]-amino}-5-methyl-2-trifluoromethyl-quinoline-7-carboxylic acid methyl amide]	> 80%	227 to 230 °C	> 80%			> 80%	
Cc1nc2cc(C(=O)NC(C)C)c(NC(=O)c3cc(C(F)(F)F)nn3-c3ncccc3Cl)c(Cl)c2nc1C [Compound T19.1.8, 8-chloro-7-{[2-(3-chloro-pyridin-2-yl)-5-trifluoromethyl-2H-pyrazole-3-carbonyl]-amino}-2,3-dimethyl-quinoxaline-6-carboxylic acid isopropylamide]	> 80%						
CC(C)NC(=O)c1cc2nsnc2c(Cl)c1NC(=O)c1cc(C(F)(F)F)nn1-c1ncccc1Cl [Compound T20.1.8, 7-chloro-6-{[2-(3-chloro-pyridin-2-yl)-5-trifluoromethyl-2H-pyrazole-3-carbonyl]-amino}-benzo[1,2,5]thiadiazole-5-carboxylic acid isopropylamide]	> 80%		> 80%				
CC(C)NC(=O)c1cc2[nH]cnc2c(Cl)c1NC(=O)c1cc(C(F)(F)F)nn1-c1ncccc1Cl [Compound T21.1.8, 7-chloro-6-{[2-(3-chloro-pyridin-2-yl)-5-trifluoromethyl-2H-pyrazole-3-carbonyl]-amino}-3H-benzoimidazole-5-carboxylic acid isopropylamide]	> 80%	200 to 203 °C	> 80%				
